# Source: PMC12281424, “A Rac-specific competitive inhibitor of guanine nucleotide binding reduces metastasis in triple-negative breast cancer” (Cell Reports Medicine, 2025)
# Tests used:
# Type in all cases: biochemical
# CDK2/cyclinE(h) = CDK2/cyclinE(h) (Homo sapiens, UniProt P24941); experiment: Kinase Profiler
# Description: (§1) Blood cell counts, kinase profiler, safety screen, bacterial cytotoxicity, Ames, micronucleus assays were performed by the company Eurofins (France). The kinase profiler was performed by the company Eurofins (Discovery, Panlab and Cerep).
# cKit(h) = cKit(h) (Homo sapiens, UniProt P10721); experiment: Kinase Profiler
# Description: as §1
# Fgr(h) = Fgr(h) (Homo sapiens, UniProt P09769); experiment: Kinase Profiler
# Description: (§2) The kinase profiler was performed by the company Eurofins (Discovery, Panlab and Cerep).
# GCN2(h) = GCN2(h) (Homo sapiens, UniProt Q9P2K8); experiment: Kinase Profiler
# Description: as §1
# GRK6(h) = GRK6(h) (Homo sapiens, UniProt P43250); experiment: Kinase Profiler
# Description: as §1
# GSK3β(h) = GSK3β(h) (Homo sapiens, UniProt P49841); experiment: Kinase Profiler
# Description: as §1
# IR(h) = IR(h) (Homo sapiens, UniProt P06213); experiment: Kinase Profiler
# Description: as §1
# JAK1(h) = JAK1(h) (Homo sapiens, UniProt P23458); experiment: Kinase Profiler
# Description: as §2
# LTK(h) = LTK(h) (Homo sapiens, UniProt P29376); experiment: Kinase Profiler
# Description: as §2
# Met(D1246H)(h) = Met(D1246H)(h) (Homo sapiens, UniProt P08581, D1228H); experiment: Kinase Profiler
# Description: as §2
# NEK2(h) = NEK2(h) (Homo sapiens, UniProt P51955); experiment: Kinase Profiler
# Description: as §2
# NEK4(h) = NEK4(h) (Homo sapiens, UniProt P51957); experiment: Kinase Profiler
# Description: as §2
# PDGFRβ(h) = PDGFRβ(h) (Homo sapiens, UniProt P09619); experiment: Kinase Profiler
# Description: as §2
# Pim-1(h) = Pim-1(h) (Homo sapiens, UniProt P11309); experiment: Kinase Profiler
# Description: as §1
# STK32C(h) = STK32C(h) (Homo sapiens, UniProt Q86UX6); experiment: Kinase Profiler
# Description: as §2
# CDC42 = CDC42 (Homo sapiens, UniProt P60953); experiment: GEF-stimulated nucleotide exchange; parameters: Full-length RAC2, RHOG, RHOA and CDC42 were purified as previously described; made in house; TIAM DH-PH in E. coli Rosetta (DE3) pLysS; details: 10^-5 M
# Excerpt: Figure 4 A41 selectively impairs RAC protein activation (A) Representative surface plasmon resonance (SPR) sensograms of binding of immobilized RHOA or CDC42 with indicated increasing concentrations of A41 (N > 3). (B) Effect of A41 on GEF-stimulated RAC2, RHOG, RHOA, and CDC42 nucleotide exchange. […] Kobs is expressed as mean ± SEM. ∗p < 0.001 vs. control. (C) Effect of A41 on RAC1 G30S activation. […] The GEF TRIO was used to induce nucleotide exchange (N = 3). Data are expressed as mean ± SEM. (D) Immunoblot analysis and associated quantification of RAC-GTP level and total RAC expression in NIH-3T3 fibroblasts expressing RAC wild-type (RAC1 WT) or RAC1 oncomutants (RAC1 P29S and RAC1b) in the absence (Ctrl) and presence of A41 (10 μM). RAC activation was measured as the ratio of RAC-GTP to total RAC and expressed relative to Ctrl condition. Data are presented as mean ± SEM. ∗∗∗p < 0.001 vs. controls.
# Full-length RAC1 carrying a 6xHis tag in C-terminus was purified as previously described.[64] […] Specific exchange activity toward RHOA determined by fluorescence kinetics is 0.04 s^−1M^−1.
# Nucleotide exchange kinetics were measured by recording the increase in fluorescence following the association of mant-GTP on GDP-bound RHO protein or the decay in fluorescence following the dissociation of mant-GDP pre-loaded onto the RHO protein (λEx = 360 nm, λEm = 440 nm) as previously described.[39] […]
# Sequence of JAK1(h) (P23458 whole entry): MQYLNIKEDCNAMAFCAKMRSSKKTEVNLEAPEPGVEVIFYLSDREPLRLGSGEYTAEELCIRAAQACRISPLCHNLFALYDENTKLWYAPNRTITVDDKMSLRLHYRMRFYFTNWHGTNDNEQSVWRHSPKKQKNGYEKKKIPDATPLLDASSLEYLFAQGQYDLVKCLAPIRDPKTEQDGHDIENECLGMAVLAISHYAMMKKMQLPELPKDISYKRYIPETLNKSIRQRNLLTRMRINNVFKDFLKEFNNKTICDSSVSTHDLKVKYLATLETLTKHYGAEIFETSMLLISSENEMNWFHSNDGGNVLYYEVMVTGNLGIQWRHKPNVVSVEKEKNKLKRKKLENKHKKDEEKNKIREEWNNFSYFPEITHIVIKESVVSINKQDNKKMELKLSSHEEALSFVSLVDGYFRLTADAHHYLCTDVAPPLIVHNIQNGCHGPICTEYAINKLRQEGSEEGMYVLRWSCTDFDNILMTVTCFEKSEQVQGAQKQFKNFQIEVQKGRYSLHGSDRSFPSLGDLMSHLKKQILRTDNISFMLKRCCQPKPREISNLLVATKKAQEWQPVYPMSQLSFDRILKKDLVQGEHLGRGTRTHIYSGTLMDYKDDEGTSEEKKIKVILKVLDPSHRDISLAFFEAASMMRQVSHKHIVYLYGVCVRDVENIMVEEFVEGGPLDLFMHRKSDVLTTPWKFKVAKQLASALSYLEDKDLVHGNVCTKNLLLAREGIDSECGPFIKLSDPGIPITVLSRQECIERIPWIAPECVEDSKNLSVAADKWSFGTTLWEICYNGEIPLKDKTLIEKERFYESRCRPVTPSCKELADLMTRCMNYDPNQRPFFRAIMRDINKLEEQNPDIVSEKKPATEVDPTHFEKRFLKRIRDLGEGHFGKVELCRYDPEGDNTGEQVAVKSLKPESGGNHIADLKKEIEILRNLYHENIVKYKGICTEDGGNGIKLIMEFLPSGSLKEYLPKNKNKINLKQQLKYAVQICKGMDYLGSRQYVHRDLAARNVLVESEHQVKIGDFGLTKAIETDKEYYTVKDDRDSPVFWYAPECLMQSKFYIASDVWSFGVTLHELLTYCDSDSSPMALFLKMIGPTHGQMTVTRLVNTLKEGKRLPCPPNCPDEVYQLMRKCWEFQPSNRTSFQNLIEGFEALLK
# Sequence of LTK(h) (P29376 17-864): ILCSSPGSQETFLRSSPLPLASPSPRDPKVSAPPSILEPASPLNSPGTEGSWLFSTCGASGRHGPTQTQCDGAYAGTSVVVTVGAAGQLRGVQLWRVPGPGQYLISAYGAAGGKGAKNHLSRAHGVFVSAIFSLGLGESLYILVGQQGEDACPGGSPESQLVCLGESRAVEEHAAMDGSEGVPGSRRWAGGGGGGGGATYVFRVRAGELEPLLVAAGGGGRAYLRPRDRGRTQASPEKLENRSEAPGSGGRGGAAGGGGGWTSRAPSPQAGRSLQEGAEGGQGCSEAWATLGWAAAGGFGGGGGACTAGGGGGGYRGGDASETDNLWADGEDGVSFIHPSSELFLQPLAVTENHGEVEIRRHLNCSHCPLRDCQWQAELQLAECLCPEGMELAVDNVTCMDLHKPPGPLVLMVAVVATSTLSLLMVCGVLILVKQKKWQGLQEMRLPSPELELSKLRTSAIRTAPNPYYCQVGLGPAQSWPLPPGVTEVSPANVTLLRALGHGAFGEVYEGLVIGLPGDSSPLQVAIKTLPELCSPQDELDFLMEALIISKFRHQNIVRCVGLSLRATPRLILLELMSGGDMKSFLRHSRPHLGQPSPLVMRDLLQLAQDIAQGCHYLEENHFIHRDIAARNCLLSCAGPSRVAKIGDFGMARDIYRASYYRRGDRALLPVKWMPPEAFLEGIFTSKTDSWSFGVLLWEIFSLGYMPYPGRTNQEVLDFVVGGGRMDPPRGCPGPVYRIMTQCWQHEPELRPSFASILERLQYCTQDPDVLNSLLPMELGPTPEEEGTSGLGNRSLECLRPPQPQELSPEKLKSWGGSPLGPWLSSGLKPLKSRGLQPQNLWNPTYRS
# Sequence of Fgr(h) (P09769 whole entry): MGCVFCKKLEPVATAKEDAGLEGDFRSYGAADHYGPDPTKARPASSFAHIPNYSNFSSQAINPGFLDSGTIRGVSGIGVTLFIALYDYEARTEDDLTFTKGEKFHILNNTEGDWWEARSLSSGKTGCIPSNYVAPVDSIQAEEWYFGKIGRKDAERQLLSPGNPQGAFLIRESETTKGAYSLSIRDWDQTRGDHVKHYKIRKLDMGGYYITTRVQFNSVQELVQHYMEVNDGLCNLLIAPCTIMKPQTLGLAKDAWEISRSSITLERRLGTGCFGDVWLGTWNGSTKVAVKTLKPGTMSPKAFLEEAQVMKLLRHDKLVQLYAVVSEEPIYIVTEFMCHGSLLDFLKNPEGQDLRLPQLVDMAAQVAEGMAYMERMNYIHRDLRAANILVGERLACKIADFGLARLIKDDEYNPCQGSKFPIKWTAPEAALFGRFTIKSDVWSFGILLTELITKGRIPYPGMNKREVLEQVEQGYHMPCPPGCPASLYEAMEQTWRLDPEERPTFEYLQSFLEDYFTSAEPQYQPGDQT
# Sequence of cKit(h) (P10721 26-976): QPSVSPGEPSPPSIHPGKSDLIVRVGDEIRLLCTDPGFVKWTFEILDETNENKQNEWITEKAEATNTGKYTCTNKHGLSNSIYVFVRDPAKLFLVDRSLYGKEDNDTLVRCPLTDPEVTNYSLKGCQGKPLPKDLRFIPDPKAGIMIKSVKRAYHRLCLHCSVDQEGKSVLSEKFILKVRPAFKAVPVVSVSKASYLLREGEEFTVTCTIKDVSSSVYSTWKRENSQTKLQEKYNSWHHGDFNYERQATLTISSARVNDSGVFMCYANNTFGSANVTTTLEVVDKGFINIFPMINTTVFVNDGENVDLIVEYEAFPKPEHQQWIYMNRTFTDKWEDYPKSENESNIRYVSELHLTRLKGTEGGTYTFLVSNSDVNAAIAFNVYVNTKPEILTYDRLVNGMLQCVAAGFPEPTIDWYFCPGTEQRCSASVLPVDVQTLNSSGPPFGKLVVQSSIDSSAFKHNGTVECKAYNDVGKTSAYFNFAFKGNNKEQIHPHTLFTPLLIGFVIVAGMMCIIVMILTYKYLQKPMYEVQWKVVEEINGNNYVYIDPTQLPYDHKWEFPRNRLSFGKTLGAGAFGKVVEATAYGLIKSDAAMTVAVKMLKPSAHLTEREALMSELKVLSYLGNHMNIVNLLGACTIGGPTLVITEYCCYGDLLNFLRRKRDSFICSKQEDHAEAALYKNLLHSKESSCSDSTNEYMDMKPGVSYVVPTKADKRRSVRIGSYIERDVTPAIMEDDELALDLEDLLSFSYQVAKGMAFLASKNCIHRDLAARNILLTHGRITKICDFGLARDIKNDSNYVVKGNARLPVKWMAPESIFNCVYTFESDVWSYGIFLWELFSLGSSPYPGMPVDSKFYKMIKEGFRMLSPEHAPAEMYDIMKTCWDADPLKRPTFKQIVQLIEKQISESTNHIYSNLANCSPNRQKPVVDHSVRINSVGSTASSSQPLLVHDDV
# Sequence of GRK6(h) (P43250 whole entry): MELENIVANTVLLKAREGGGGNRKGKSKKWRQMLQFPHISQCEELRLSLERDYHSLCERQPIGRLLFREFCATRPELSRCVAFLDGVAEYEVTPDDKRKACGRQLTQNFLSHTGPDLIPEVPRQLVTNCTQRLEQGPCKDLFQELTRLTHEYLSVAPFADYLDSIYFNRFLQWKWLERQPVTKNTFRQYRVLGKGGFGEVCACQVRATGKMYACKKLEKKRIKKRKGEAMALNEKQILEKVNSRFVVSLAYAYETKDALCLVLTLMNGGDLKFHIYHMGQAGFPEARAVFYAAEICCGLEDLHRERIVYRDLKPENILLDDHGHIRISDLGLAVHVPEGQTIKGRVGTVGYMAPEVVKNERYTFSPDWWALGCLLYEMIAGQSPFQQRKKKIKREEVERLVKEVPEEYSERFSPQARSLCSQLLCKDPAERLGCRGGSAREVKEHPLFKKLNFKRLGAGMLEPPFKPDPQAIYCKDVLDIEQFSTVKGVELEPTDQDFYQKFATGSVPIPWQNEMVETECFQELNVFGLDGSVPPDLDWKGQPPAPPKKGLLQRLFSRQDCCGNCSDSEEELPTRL
# Sequence of Pim-1(h) (P11309 whole entry): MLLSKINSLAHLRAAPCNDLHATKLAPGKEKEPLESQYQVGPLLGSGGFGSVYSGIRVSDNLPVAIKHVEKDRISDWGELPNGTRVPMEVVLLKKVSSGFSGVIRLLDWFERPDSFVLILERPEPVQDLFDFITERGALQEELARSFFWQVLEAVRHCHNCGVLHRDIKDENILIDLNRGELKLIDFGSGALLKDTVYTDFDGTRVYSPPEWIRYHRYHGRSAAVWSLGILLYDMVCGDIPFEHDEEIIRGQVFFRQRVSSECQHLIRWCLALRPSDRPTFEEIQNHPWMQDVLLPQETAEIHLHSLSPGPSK
# Sequence of NEK2(h) (P51955 whole entry): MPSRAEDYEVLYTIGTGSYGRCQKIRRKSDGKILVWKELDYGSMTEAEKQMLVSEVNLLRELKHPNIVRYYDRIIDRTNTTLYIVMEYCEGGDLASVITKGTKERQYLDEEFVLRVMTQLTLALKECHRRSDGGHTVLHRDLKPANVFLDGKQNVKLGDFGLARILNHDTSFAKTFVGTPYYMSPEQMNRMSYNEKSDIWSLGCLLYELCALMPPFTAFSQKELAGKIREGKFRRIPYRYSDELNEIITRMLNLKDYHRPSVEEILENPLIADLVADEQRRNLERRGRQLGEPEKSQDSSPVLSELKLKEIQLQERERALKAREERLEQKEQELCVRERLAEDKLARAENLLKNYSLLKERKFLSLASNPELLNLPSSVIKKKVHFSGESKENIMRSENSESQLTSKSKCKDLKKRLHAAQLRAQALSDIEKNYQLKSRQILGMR
# Sequence of CDC42 (P60953 whole entry): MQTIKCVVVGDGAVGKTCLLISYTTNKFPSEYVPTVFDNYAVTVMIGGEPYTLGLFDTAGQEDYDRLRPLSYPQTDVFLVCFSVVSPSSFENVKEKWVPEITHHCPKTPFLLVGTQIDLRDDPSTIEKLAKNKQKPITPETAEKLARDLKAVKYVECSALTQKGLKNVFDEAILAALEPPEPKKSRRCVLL
structure (smiles),measurement,setting,value
COc1ccc(OC)c(NS(=O)(=O)c2ccc(NC(=O)CCSc3ccc(C)cc3)cc2)c1 [Compound A41],Activity(%),CDK2/cyclinE(h),100%
same,Activity(%),cKit(h),101%
same,Activity(%),Fgr(h),114%
same,Activity(%),GCN2(h),101%
same,Activity(%),GRK6(h),100%
same,Activity(%),GSK3β(h),90%
same,Activity(%),IR(h),137%
same,Activity(%),JAK1(h),99%
same,Activity(%),LTK(h),113%
same,Activity(%),Met(D1246H)(h),115%
same,Activity(%),NEK2(h),118%
same,Activity(%),NEK4(h),108%
same,Activity(%),PDGFRβ(h),82%
same,Activity(%),Pim-1(h),95%
same,Activity(%),STK32C(h),105%
same,activation of CDC42 induced by TIAM DH-PH,CDC42,did not change the activation
